According to ChEMBL document CHEMBL1152888, “Synthesis, pharmacological and in silico evaluation of 1-(4-di-hydroxy-3,5-dioxa-4-borabicyclo[4.4.0]deca-7,9,11-trien-9-yl)-2-(tert-butylamino)ethanol, a compound designed to act as a beta2 adrenoceptor agonist” (Eur J Med Chem, 2009):
Active and inactive are the calls of the source. The calls are words filed in the database; no cut-off is given here.

How the values were obtained:
[1] = target: Beta-2 adrenergic receptor (Cavia porcellus) (UniProt Q8K4Z4); assay: (§1) Agonist activity at adrenergic beta2 receptor in Hartley guinea pig tracheal ring assessed as bronchorelaxation activity against carbachol-induced contraction; format: functional, tissue-based; conditions: Trachea
[2] = target: Beta-2 adrenergic receptor (Cavia porcellus) (UniProt Q8K4Z4); assay: (§2) Agonist activity at adrenergic beta2 receptor in Hartley guinea pig tracheal ring assessed as bronchorelaxation activity against histamine-induced contraction; format: functional, tissue-based; conditions: Trachea
[3] = target: Beta-2 adrenergic receptor (Cavia porcellus) (UniProt Q8K4Z4); assay: Agonist activity at adrenergic beta2 receptor in Hartley guinea pig tracheal ring assessed as bronchorelaxation activity against histamine-induced contraction in presence of propranolol; format: functional, tissue-based; conditions: Trachea
[4] = target: Beta-2 adrenergic receptor (Cavia porcellus) (UniProt Q8K4Z4); assay: Agonist activity at adrenergic beta2 receptor in Hartley guinea pig tracheal ring assessed as bronchorelaxation activity against histamine-induced contraction in presence of ICI-118551; format: functional, tissue-based; conditions: Trachea
[5] = target: Beta-2 adrenergic receptor (Homo sapiens, UniProt P07550)
Description: Binding affinity to human adrenergic beta2 receptor

[6] = target: T1, Beta-2 adrenergic receptor (Cavia porcellus, UniProt Q8K4Z4); assay: as §1; format: functional, tissue-based, Trachea
[7] = target: T1, Beta-2 adrenergic receptor; assay: as §2; format: functional, tissue-based, Trachea
[8] = target: Beta-2 adrenergic receptor (Cavia porcellus) (UniProt Q8K4Z4); assay: Agonist activity at adrenergic beta2 receptor in Hartley guinea pig tracheal ring assessed as maximum bronchorelaxation activity against carbachol-induced contraction at 1 uM; format: functional, tissue-based; conditions: Trachea
[9] = target: Beta-2 adrenergic receptor (Cavia porcellus) (UniProt Q8K4Z4); assay: Agonist activity at adrenergic beta2 receptor in Hartley guinea pig tracheal ring assessed as maximum bronchorelaxation activity against histamine-induced contraction at 1 uM; format: functional, tissue-based; conditions: Trachea
[10] = target: T1, Beta-2 adrenergic receptor; assay: Binding affinity to adrenergic beta2 receptor in Hartley guinea pig tracheal ring

T1 sequence (Q8K4Z4 whole entry): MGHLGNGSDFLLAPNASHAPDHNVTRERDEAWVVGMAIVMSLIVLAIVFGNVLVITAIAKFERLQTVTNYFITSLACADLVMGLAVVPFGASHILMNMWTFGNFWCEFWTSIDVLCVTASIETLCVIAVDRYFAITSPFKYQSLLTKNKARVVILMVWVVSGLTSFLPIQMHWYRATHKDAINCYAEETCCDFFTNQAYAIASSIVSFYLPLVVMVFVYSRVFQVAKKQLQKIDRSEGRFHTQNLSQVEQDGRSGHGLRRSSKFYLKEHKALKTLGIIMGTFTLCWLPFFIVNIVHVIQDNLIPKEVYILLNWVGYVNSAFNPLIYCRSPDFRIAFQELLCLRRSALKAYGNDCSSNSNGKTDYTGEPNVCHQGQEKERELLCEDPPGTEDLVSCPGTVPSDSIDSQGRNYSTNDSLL
Beta-2 adrenergic receptor (Cavia porcellus), sequence (Q8K4Z4 whole entry, looked up): as the sequence (Q8K4Z4 whole entry) above
Beta-2 adrenergic receptor (Homo sapiens, UniProt P07550), sequence (P07550 whole entry): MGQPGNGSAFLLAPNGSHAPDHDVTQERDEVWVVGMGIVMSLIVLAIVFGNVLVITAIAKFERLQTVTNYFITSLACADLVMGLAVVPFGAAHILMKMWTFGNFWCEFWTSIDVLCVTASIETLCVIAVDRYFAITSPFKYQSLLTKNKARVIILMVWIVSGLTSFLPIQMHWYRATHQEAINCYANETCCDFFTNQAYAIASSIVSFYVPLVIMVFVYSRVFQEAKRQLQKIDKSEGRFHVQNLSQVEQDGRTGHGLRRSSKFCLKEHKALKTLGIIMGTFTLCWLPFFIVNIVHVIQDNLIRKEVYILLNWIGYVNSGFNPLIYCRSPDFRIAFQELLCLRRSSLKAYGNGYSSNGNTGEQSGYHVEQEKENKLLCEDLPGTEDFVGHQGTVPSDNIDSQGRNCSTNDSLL

Row | Activity [1] | Activity [2] | Activity [3] | Activity [4] | Kd [5] | EC50 [6] | EC50 [7] | Activity [8] | Activity [9] | Kd [10] | SMILES
1 | Dose-dependent effect | Dose-dependent effect | inactive | inactive |  |  |  |  |  |  | CC(C)(C)NCC(O)c1ccc(O)c(CO)c1 (centres undefined)
2 |  |  |  |  | 4810 nM |  |  |  |  |  | CC(C)NCC(O)c1cc(O)cc(O)c1 (centres undefined) [METAPROTERENOL]
3 | Dose-dependent effect | Dose-dependent effect | inactive | inactive |  | 2.1 nM | 0.072 nM | Active | Active | 110 nM | CC(C)(C)NC[C@@H](O)c1ccc(OB(O)O)c(CO)c1
